How the values were obtained:
[1] = tested on: Staphylococcus aureus; type: cell-based
[2] = tested on: Pseudomonas aeruginosa; type: cell-based
[3] = tested on: SARS-CoV-2; parameters: species or system Balb/c mice; conditions: mouse, in vivo

SMILES | antimicrobiotic activity [1] | antimicrobiotic activity [2] | VNTs after 48 h storage with preservative [3]
OCCOc1ccccc1 [Formulation 2-PE, 2-Phenoxyethanol] | has antimicrobiotic activity | has antimicrobiotic activity | more advantageous results
C[CH2][Hg][S]c1ccccc1C(=O)[O-].[Na+] [Thiomersal, Natrium-2-(ethylmercurithio)benzoat] |  |  | slight decrease

From patent US20240299309A1 (priority 2020, published 2024)
